Reference: patent US20090023666A1, “Modulators of Hypoxia Inducible Factor-1 and Related Uses” (priority 2006, published 2009)
“Also recorded” adds a separate entry of the source. Read-outs that look alike come from different tables or passages of the source.

Tests used:
[1] = tested on: MES-SA; test: Anti-proliferative activity, MES-SA; type: cell-based; settings: Homo sapiens, read-out: Anti-Proliferative activity IC50
Protocol: (§1) FIG. 8 is a graph depicting the mRNA levels of α-1 and α-3 isoforms quantitated by real time RT-PCR (TaqMan) using fluorescent labeled TaqMan probes. Anti-proliferation (IC50 values) activity of BNC4 on indicated cell lines was determined by MTS assay. Total alpha levels (al+a3) were plotted against (1/IC50) X100 values.

[2] = tested on: Caki-1 tumors; test: In vivo activity against renal cancer cell line Caki-1 xenograft; settings: Caki-1 bearing nude mice
Protocol: Female nude mice (nu/nu) between 5 and 6 weeks of age weighing approximately 20 g were implanted subcutaneously (s.c.) by trocar with fragments of human tumors harvested from s.c. grown tumors in nude mice hosts. When the tumors were approximately 60-75 mg in size (about 10-15 days following inoculation), the animals were pair-matched into treatment and control groups. Each group contained 8-10 mice. The administration of drugs or controls began on the day the animals were pair-matched (Day 1). Pumps (Alzet® Model 2002) with a flow rate of 0.5 μl/hr were implanted s.c. between the shoulder blades of each mice. Mice were weighed and tumor measurements were obtained using calipers twice weekly, starting Day 1. These tumor measurements were converted to mg tumor weight by standard formula, (W^2XL)/2. The experiment was terminated when the control group tumor size reached an average of about 1 gram. Upon termination, the mice were weighed, sacrificed and their tumors excised. The tumors were weighed and the mean tumor weight per group was calculated.

[3] = tested on: tumor cell lines; test: Anti-proliferative activity in tumor cell lines (panel); type: cell-based, human; settings: for IC50: Homo sapiens, read-out: IC50 range over the tumor cell lines
Protocol: as §1

[4] = tested on: Panc-1 tumors; test: In vivo activity against Panc-1 human pancreatic xenograft; parameters: species or system nude mice; settings: SC, CI
Protocol: Panc-1 tumors were injected subcutaneously (sc) into the flanks of male nude mice. After the tumors reached 60 mg in size, osmotic pumps (model 2002, Alzet Inc., flow rate 0.5 μl/hr) containing 15 mg/ml of BP244 were implanted sc on the opposite sides of the mice. The control animals received pumps containing vehicle (10% captisol, Cyclex Inc.). The mice treated with standard chemotherapy agent received intra-peritoneal injections of Gemcitabine at 40 mg/kg every 3 days for 4 treatments (q3d×4). The experiment was terminated when the control group tumor size reached an average of about 1 gram. Upon termination, the mice were weighed, sacrificed and their tumors excised. The tumors were weighed and the mean tumor weight per group was calculated.
A titration experiment was first performed on BP244 to determine its minimum effective dose against Panc-1 human pancreatic xenograft in nude mice. BP244 (sc, osmotic pumps) was first tested at 15, 10 and 5 mg/ml using Alzet pumps as in previous experiments. Gemcitabine (40 mg/kg; q3d×4, i.p.) was also included in the experiment as a comparison. […]

[5] = tested on: 786-O; test: Anti-proliferative activity, 786-O; type: cell-based; settings: Homo sapiens
Protocol: as §1

[6] = tested on: IGR-OV1; test: Anti-proliferative activity, IGR-OV1; type: cell-based; settings: Homo sapiens
Protocol: as §1

[7] = tested on: HOP-18; test: Anti-proliferative activity, HOP-18; type: cell-based; settings: Homo sapiens
Protocol: as §1

[8] = tested on: Na-K-ATPase; test: Na-K-ATPase enzyme assay (inorganic phosphate liberated from ATP), pig brain; type: biochemical; settings: pig brain
Protocol: Compounds were tested for their activity on Na-K-ATPase enzyme in an in vitro enzyme assay. The ATPase activity was assayed as the amount of inorganic phosphate liberated from ATP by Dog Kidney or Porcine cerebral cortex Na-K-ATPase.

[9] = tested on: P388; test: Anti-proliferative activity, P388; type: cell-based; settings: Mus musculus
Protocol: as §1

[10] = tested on: A549 sentinel line; test: Hypoxic stress response induced by cytotoxic agents in A549 sentinel line; type: cell-based; settings: in the presence of Gemcitabine
Excerpt: FIGS. 7A-7E are graphs depicting the stress response of A549 Sentinel Line induced by treatment with Gemcitabine (FIG. 7A) or Gemcitabine in the presence of indicated compound (FIG. 7B-7D). Untreated (control) sample is shown in shadow. […] Similar results can be achieved for other chemotherapeutic agents which induce hypoxic stress, such as paclitaxel, carboplatin, and mitoxantrone.
Similar results were obtained with carboplatin (not shown).

[11] = tested on: DU145; test: Anti-proliferative activity, DU145; type: cell-based; settings: Homo sapiens
Protocol: as §1

[12] = tested on: HIF-1α; test: Inhibition of HIF-1α induced under normoxia by PHD inhibitor L-mimosone (Western blotting); type: cell-based; settings: Hep3B cells, 200 μM L-mimosone 18 hours
Protocol: Abundance of HIF1α and β-actin was determined by Western blotting.

[13] = cited from earlier work
[14] = tested on: HIF-1α; test: Inhibition of hypoxia-mediated HIF-1α induction (immunoblotting); type: cell-based, human; settings: Caki-1 or Panc-1 cells under hypoxia
[15] = 786-0, read-out: Anti-Proliferative activity IC50
[16] = IGROV-1, read-out: Anti-Proliferative activity IC50
[17] = HOP-18, read-out: Anti-Proliferative activity IC50
[18] = P388, read-out: Anti-Proliferative activity IC50
[19] = DU-145, read-out: Anti-Proliferative activity IC50

Row | Compound | IC50 [1] [nM] | IC50 [3] [nM] | % TGI (d24) ([4]; 10 mg/ml) [%] | % Wt Change (d24) ([4]; 10 mg/ml) [%] | Av. Tumor Weight ([4]; 10 mg/ml) [mg] | % TGI (d24) ([4]; 15 mg/ml) [%] | % Wt Change (d24) ([4]; 15 mg/ml) [%] | Av. Tumor Weight ([4]; 15 mg/ml) [mg] | IC50 [5, 15] [nM] | IC50 [6, 16] [nM] | IC50 [7, 17] [nM] | IC50 [9, 18] [nM] | stress response in A549 sentinel line induced by Gemcitabine [10] | IC50 [11, 19] [nM] | further results
1 | C[C@@H]1O[C@@H](O[C@@H]2C=C3CC[C@@H]4[C@H](CC[C@]5(C)[C@@H](c6ccc(=O)oc6)CC[C@]45O)[C@@]3(C)CC2)[C@H](O)[C@H](O)[C@H]1N [BP244] | 8 | 5 to 14 | 98 | 0.93 | 107.3 | 102 | 5.26 | 44.2 | 8 | 12.1 | 7.3 | > 1000 | can inhibit the stress response | 6.7 | adverse effects ([2]; 15 mg/ml pump): without any adverse effects; tumor growth inhibition (TGI) ([2]; 15 mg/ml, s.c. Alzet pump 0.5 μl/hr): 83%; % TGI (d24) ([4]; 5 mg/ml): 71%; % Wt Change (d24) ([4]; 5 mg/ml): −4.63%; Av. Tumor Weight ([4]; 5 mg/ml): 524.4 mg; activity on Na-K-ATPase relative to BP228 [8]: twice as active as BP228; IC50 ([8]; FIG. 9, read-out: IC50, Na-K-ATPase): 98000 nM
2 | C[C@@H]1O[C@@H](O[C@@H]2C=C3CC[C@@H]4[C@H](CC[C@]5(C)[C@@H](c6ccc(=O)oc6)CC[C@]45O)[C@@]3(C)CC2)[C@H](O)[C@H](O)[C@H]1O [BNC4, proscillaridin, reference compound] |  |  |  |  |  | 87 | −2.69 | 243.9 |  |  |  |  | can inhibit the stress response |  | IC50 ([1]; Uterine): 8.7 nM; IC50 ([3]; range over cell lines of Table 2): 418 nM; sensitivity of cell lines expressing very low levels of α-chain ([3]; SNB75 and RPMI-8226 compared with A549 or PC-3, MTS assay): very resistant; IC50 ([5]; 786-0, 786-O, Renal, read-out: Anti-Proliferative activity IC50): 8.4 nM; IC50 ([6]; IGROV-1, IGR-OV1, Ovarian, read-out: Anti-Proliferative activity IC50): 12.3 nM; HIF-1α accumulation by L-mimosone [12]: blocks HIF-1α induction; also recorded: eliminated HIF-1α accumulation by L-mimosone; IC50 ([7]; HOP-18, NSCL, read-out: Anti-Proliferative activity IC50): 9.2 nM; plasma half-life in human ([13]; human, according to the literature): about 40 hours; max. plasma concentration ([13]; in vivo): about 0.1 μg/mL; IC50 ([9]; P388, Leukemia, read-out: Anti-Proliferative activity IC50): > 1000 nM; potency in inhibiting HIF-1α expression relative to BNC1 [14]: about 10 times; IC50 ([11]; DU-145, DU145, Prostate (AR-), read-out: Anti-Proliferative activity IC50): 6.2 nM
3 | C[C@]12CC/C(=N\OCCN3CCCCC3)C=C1CC[C@@H]1[C@@H]2CC[C@]2(C)[C@@H](c3ccc(=O)oc3)CC[C@]12O [BP228] | 11.4 | 640 | 66 | 1.97 | 488.0 | 79 | 4.88 | 327.0 | 8.9 | 31.9 | 18.9 | > 1000 | can inhibit the stress response | 8.8 | 
